Reference: US20250228239A1, “MOLECULES HAVING PESTICIDAL UTILITY, AND INTERMEDIATES, COMPOSITIONS, AND PROCESSES, RELATED THERETO” (priority 2024, published 2025)
Like-named read-outs stand apart in the source and are kept apart here.

How the values were obtained:
Format in all cases: in vivo
[1] = tested on: Yellow Fever Mosquito (Aedes aegypti, AEDSAE); conditions: for YFM rating: Table ABC / ABC-DP rating
Outline: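 Larvae ~1 day old, in liver powder/water; compound from 4000 ppm DMSO stock diluted with water/acetone (90:10); 6 reps; lidded, RT, 3 d; mortality scored per well, rated.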

[2] = tested on: Beet Armyworm (Spodoptera exigua, LAPHEG); assay: Bioassays on Beet Armyworm (BAW), 128-well diet tray assay; conditions: Spodoptera exigua
Outline: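 Test molecule was dissolved in 90:10 acetone-water and applied at 50 μg/cm^2 onto artificial diet in eight wells, then dried. Second instar larvae, one to five per well, were added, and trays were kept vented at 25° C. with a 14:10 photoperiod for five to seven days before mortality was recorded.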

[3] = tested on: Cabbage Looper (Trichoplusia ni, TRIPNI); assay: Bioassays on Cabbage Looper (CL), 128-well diet tray assay; conditions: Trichoplusia ni
Outline: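 Each of eight wells receives artificial diet treated at 50 μg/cm^2 with the test molecule, then one to five second-instar larvae. Incubation runs five to seven days at 25° C with a 14:10 light-dark cycle under vented covers. Mortality is scored per well as a percentage and averaged.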

[4] = Table ABC: Biological Results, species YFM
[5] = Table ABC: Biological Results, species BAW, read-out: BAW
[6] = Table ABC: Biological Results, species CL, read-out: CL
[7] = Yellow Fever Mosquito, rating class
[8] = Beet Armyworm, rating class, read-out: BAW
[9] = Cabbage Looper, rating class, read-out: CL
[10] = Beet Armyworm, Table ABC / ABC-DP rating, read-out: BAW rating
[11] = Cabbage Looper, Table ABC / ABC-DP rating, read-out: CL rating

| SMILES | YFM [1, 4] | pest or weed control at 50 µg/cm2 [2, 5] [%] | pest or weed control at 50 µg/cm2 [3, 6] [%] | YFM rating ([1]; Yellow Fever Mosquito) | pest or weed control at 50 µg/cm2 [2, 10] [%] | pest or weed control at 50 µg/cm2 [3, 11] [%] | other results |
| --- | --- | --- | --- | --- | --- | --- | --- |
| NCCCC(=O)Nc1c(F)ccc(NC(=O)c2cc(NC(=O)[C@H]3[C@H](c4ccc(Cl)c(Cl)c4)C3(Cl)Cl)ccc2Cl)c1F [F1201, N-(3-(4-Aminobutanamido)-2,4-difluorophenyl)-2-chloro-5-((1R,3R)-2,2-dichloro-3-(3,4-dichlorophenyl)cyclopropane-1-carboxamido)benzamide] | A (80–100) | 50 to 100 | 50 to 100 | – | – | – | – |
| CC(=O)Nc1c(F)ccc(NC(=O)c2cc(NC(=O)[C@H]3[C@H](c4cc(Cl)cc(Cl)c4)C3(Cl)Cl)cc(F)c2F)c1F [F1439, N-(3-Acetamido-2,4-difluorophenyl)-5-((1R,3R)-2,2-dichloro-3-(3,5-dichlorophenyl)cyclopropane-1-carboxamido)-2,3-difluorobenzamide] | – | – | – | – | – | – | YFM [1, 7]: A (80–100); pest or weed control at 50 µg/cm2 [2, 8]: 50 to 100%; pest or weed control at 50 µg/cm2 [3, 9]: 50 to 100% |
| O=C(Nc1ccc(F)c(NC(=O)C(F)F)c1F)c1cc(NC(=O)[C@H]2[C@H](c3ccc(F)c(Br)c3)C2(Cl)Cl)ccc1Cl [F1410, 5-((1R,3R)-3-(3-Bromo-4-fluorophenyl)-2,2-dichlorocyclopropane-1-carboxamido)-2-chloro-N-(3-(2,2-difluoroacetamido)-2,4-difluorophenyl)benzamide] | – | – | – | – | – | – | YFM [1, 7]: A (80–100); pest or weed control at 50 µg/cm2 [2, 8]: 50 to 100%; pest or weed control at 50 µg/cm2 [3, 9]: 50 to 100% |
| O=C(Nc1cc(NC(=O)C(F)(F)F)c(F)cc1F)c1cc(NC(=O)[C@H]2[C@H](c3ccc(F)c(C(F)(F)F)c3)C2(Cl)Cl)ccc1F [F1557, 5-((1R,3R)-2,2-Dichloro-3-(4-fluoro-3-(trifluoromethyl)phenyl)cyclopropane-1-carboxamido)-N-(2,4-difluoro-5-(2,2,2-trifluoroacetamido)phenyl)-2-fluorobenzamide] | – | – | – | – | – | – | YFM [1, 7]: A (80–100); pest or weed control at 50 µg/cm2 [2, 8]: 50 to 100%; pest or weed control at 50 µg/cm2 [3, 9]: 50 to 100% |
| CC(Cl)(Cl)C(=O)Nc1c(F)ccc(NC(=O)c2cc(NC(=O)[C@H]3[C@H](c4ccc(F)c(C(F)(F)F)c4)C3(Cl)Cl)ccc2Cl)c1F [F1351, 2-Chloro-5-((1R,3R)-2,2-dichloro-3-(4-fluoro-3-(trifluoromethyl)phenyl)cyclopropane-1-carboxamido)-N-(3-(2,2-dichloropropanamido)-2,4-difluorophenyl)benzamide] | A (80–100) | 50 to 100 | 50 to 100 | – | – | – | – |
| CC(OCC1CC1)C(=O)Nc1c(F)ccc(NC(=O)c2cc(NC(=O)[C@H]3[C@H](c4ccc(F)c(C(F)(F)F)c4)C3(Cl)Cl)ccc2Cl)c1F (stereo partly drawn) [F1745, 2-Chloro-N-(3-(2-(cyclopropylmethoxy)propanamido)-2,4-difluorophenyl)-5-((1R,3R)-2,2-dichloro-3-(4-fluoro-3-(trifluoromethyl)phenyl)cyclopropane-1-carboxamido)benzamide] | – | – | – | – | – | – | YFM [1, 7]: A (80–100); pest or weed control at 50 µg/cm2 [2, 8]: 50 to 100%; pest or weed control at 50 µg/cm2 [3, 9]: 50 to 100% |
| O=C(NNCc1ccccc1)c1cc(NC(=O)[C@H]2[C@H](c3cc(Cl)cc(Cl)c3)C2(Cl)Cl)ccc1Cl (relative stereo) [F2545, trans-N-(3-(2-Benzylhydrazine-1-carbonyl)-4-chlorophenyl)-2,2-dichloro-3-(3,5-dichlorophenyl)cyclopropane-1-carboxamide] | – | – | – | A (80–100) | 50 to 100 | 50 to 100 | – |
| CCC(F)(F)CNC(=O)c1cc(NC(=O)[C@H]2[C@H](c3cc(Cl)cc(Cl)c3)C2(Cl)Cl)ccc1Cl (relative stereo) [F2086, trans-2-Chloro-5-(2,2-dichloro-3-(3,5-dichlorophenyl)cyclopropane-1-carboxamido)-N-(2,2-difluorobutyl)benzamide] | – | – | – | A (80–100) | 50 to 100 | 50 to 100 | – |
| O=C(Nc1ccc(F)cc1F)c1cc(NC(=O)[C@H]2[C@H](c3cc(F)c(Cl)c(Cl)c3)C2(Cl)Cl)ccc1Cl (relative stereo) [F1024, trans-2-Chloro-5-(2,2-dichloro-3-(3,4-dichloro-5-fluorophenyl)cyclopropane-1-carboxamido)-N-(2,4-difluorophenyl)benzamide] | A (80–100) | 50 to 100 | 50 to 100 | – | – | – | – |
| O=C(Nc1ccc(F)c(NC(=O)C(F)(F)C(F)F)c1F)c1cc(NC(=O)[C@H]2[C@H](c3ccc(Cl)c(Cl)c3)C2(Cl)Cl)ccc1Cl [F1414, 2-Chloro-5-((1R,3R)-2,2-dichloro-3-(3,4-dichlorophenyl)cyclopropane-1-carboxamido)-N-(2,4-difluoro-3-(2,2,3,3-tetrafluoropropanamido)phenyl)benzamide] | – | – | – | – | – | – | YFM [1, 7]: A (80–100); pest or weed control at 50 µg/cm2 [2, 8]: 50 to 100%; pest or weed control at 50 µg/cm2 [3, 9]: 50 to 100% |
| CN(NC(=O)c1cc(NC(=O)[C@H]2[C@H](c3cc(Cl)c(Cl)c(Cl)c3)C2(Cl)Cl)ccc1Cl)c1ccccc1 [F2511, (1R,3R)-2,2-Dichloro-N-(4-chloro-3-(2-methyl-2-phenylhydrazine-1-carbonyl)phenyl)-3-(3,4,5-trichlorophenyl)cyclopropane-1-carboxamide] | – | – | – | A (80–100) | 50 to 100 | 50 to 100 | – |
| C=CCC(=O)Nc1c(F)ccc(NC(=O)c2cc(NC(=O)[C@H]3[C@H](c4cccc(C(F)(F)F)c4)C3(Cl)Cl)ccc2Cl)c1F [F1878, N-(3-(But-3-enamido)-2,4-difluorophenyl)-2-chloro-5-((1R,3R)-2,2-dichloro-3-(3-(trifluoromethyl)phenyl)cyclopropane-1-carboxamido)benzamide] | – | – | – | A (80–100) | 50 to 100 | 50 to 100 | – |
| C=CCN(C(=O)c1cc(NC(=O)[C@H]2[C@H](c3ccc(F)c(C(F)(F)F)c3)C2(Cl)Cl)ccc1Cl)c1ccc(F)c(N)c1F (relative stereo) [F1113, trans-N-Allyl-N-(3-amino-2,4-difluorophenyl)-2-chloro-5-(2,2-dichloro-3-(4-fluoro-3-(trifluoromethyl)phenyl)cyclopropane-1-carboxamido)benzamide] | A (80–100) | 50 to 100 | 50 to 100 | – | – | – | – |
| O=C(NCC(F)(F)F)c1cc(NC(=O)[C@H]2[C@@H](c3ccc(F)c(Cl)c3F)C2(Cl)Cl)ccc1Cl (relative stereo) [F2010, cis-2-Chloro-5-(2,2-dichloro-3-(3-chloro-2,4-difluorophenyl)cyclopropane-1-carboxamido)-N-(2,2,2-trifluoroethyl)benzamide] | – | – | – | A (80–100) | 50 to 100 | 50 to 100 | – |
| C=Cc1cc(NC(=O)c2cc(NC(=O)[C@H]3[C@H](c4cc(Cl)cc(Cl)c4)C3(Cl)Cl)ccc2Cl)cc(F)c1F (relative stereo) [F1317, trans-2-Chloro-5-(2,2-dichloro-3-(3,5-dichlorophenyl)cyclopropane-1-carboxamido)-N-(3,4-difluoro-5-vinylphenyl)benzamide] | A (80–100) | 50 to 100 | 50 to 100 | – | – | – | – |
| COc1ccc(CNc2ccc(NC(=O)c3cc(NC(=O)[C@H]4[C@H](c5cc(Cl)cc(Cl)c5)C4(Cl)Cl)ccc3Cl)c(C)c2)cc1 (relative stereo) [F1035, trans-2-Chloro-5-(2,2-dichloro-3-(3,5-dichlorophenyl)cyclopropane-1-carboxamido)-N-(4-((4-methoxybenzyl)amino)-2-methylphenyl)benzamide] | A (80–100) | 50 to 100 | 50 to 100 | – | – | – | – |
| O=C(Nc1ccc(F)cc1)c1cc(NC(=O)[C@H]2[C@H](c3ccc(F)c(Cl)c3)C2(Cl)Cl)cc(C(F)(F)F)c1Cl (relative stereo) [F1214, trans-2-Chloro-5-(2,2-dichloro-3-(3-chloro-4-fluorophenyl)cyclopropane-1-carboxamido)-N-(4-fluorophenyl)-3-(trifluoromethyl)benzamide] | A (80–100) | 50 to 100 | 50 to 100 | – | – | – | – |
| CN(C(=O)c1cc(NC(=O)[C@H]2[C@H](c3ccc(F)c(C(F)(F)F)c3)C2(Cl)Cl)ccc1Cl)c1ccc(F)c(NC(=O)C2CCCO2)c1F (stereo partly drawn) [F1798, N-(3-(2-Chloro-5-((1R,3R)-2,2-Dichloro-3-(4-fluoro-3-(trifluoromethyl)phenyl)cyclopropane-1-carboxamido)-N-methylbenzamido)-2,6-difluorophenyl)tetrahydrofuran-2-carboxamide] | – | – | – | B (More than 0 – Less than 80) | 50 to 100 | 50 to 100 | – |
| CS(=O)(=O)N(c1c(F)ccc(NC(=O)c2cc(NC(=O)[C@H]3[C@H](c4ccc(F)c(C(F)(F)F)c4)C3(Cl)Cl)ccc2Cl)c1F)S(C)(=O)=O [F1277, 2-chloro-5-((1R,3R)-2,2-dichloro-3-(4-fluoro-3-(trifluoromethyl)phenyl)cyclopropane-1-carboxamido)-N-(2,4-difluoro-3-(N-(methylsulfonyl)methylsulfonamido)phenyl)benzamide] | A (80–100) | 50 to 100 | 50 to 100 | – | – | – | – |
